In paper PMC4939875 (Nature, 2016):

Assays:
TONSL ARD = assay: GST-histone tail pull-down with recombinant TONSL ARD; assay type: binding, human; details: GST-H3 tail (1–59), GST-H4 tail (1–31); 20 mM Tris pH 7.5, 0.5 M NaCl; SDS-PAGE
[1] = tested on: TONSL acidic stretch and ARD (a.a. 450-692); assay: ITC of TONSL acidic stretch and ARD; assay type: binding, human; details: TONSL a.a. 450-692, H3K9me1 (a.a. 1-21), 20 mM Tris pH 7.5, 0.5 M NaCl

Row | Substance | binding of TONSL ARD to GST-histone tail (TONSL ARD) | interaction between TONSL ARD with acidic stretch and H3K9me1 peptide [1]
1 | GST-H4 tail: GST-tagged human histone H4 fragment 1–31 | binds | –
2 | H3K9me1: peptide of H3(1-21)K9me1 (mono-methylation on Lys9) | – | unable to detect an interaction
